In experiment [1] the target is T1, β-amyloid Aβ21–40 (C-terminal fragment of Aβ1–40) (Homo sapiens, UniProt P05067).
T1 construct: gene APP
Briefly: UV/Vis titration; ESI-MS […] adduct; also ThT aggregation and CD. Format: binding.

Experiment [2] deals with T1, β-amyloid Aβ21–40 (C-terminal fragment of Aβ1–40). Briefly: UV/Vis titration; ESI-MS […] adduct; also ThT aggregation. Format: binding.

T1 sequence (P05067 692-711): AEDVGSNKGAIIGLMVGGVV

`[Cl][Pt-2]12[n+]3ccccc3-c3cccc([n+]31)-c1cccc[n+]12` [Pt-terpy, (SP-4-2)-chlorido(2,2′:6′,2′′-terpyridine)platinum(II) chloride] showed an EC50 in experiment [1] of 68 ± 14 µM.
Consider `[Cl][Pt-2]1([Cl])[n+]2cccc3ccc4ccc[n+]1c4c32` [Pt-phen, (SP-4-2)-dichlorido(1,10-phenanthroline)platinum(II)], for which the EC50 in experiment [2] came out at 49 ± 20 µM.

The values are drawn from publication PMC7998721, “A Comparative Study of the Effects of Platinum (II) Complexes on β-Amyloid Aggregation: Potential Neurodrug Applications” (International Journal of Molecular Sciences, 2021).
